# Publication PMC6211260 (Journal of Enzyme Inhibition and Medicinal Chemistry, 2018)
# Legend:
# hERG = molecular target: T1, hERG (Homo sapiens, UniProt Q12809); assay: hERG binding assay (hERG Fluorescence Polarization Assay)
# T1 construct: purchased Invitrogen PV5365
# Method: hERG binding assay was performed using hERG Fluorescence Polarization Assay (Invitrogen: PV5365) assay kit and Synergy Neo (Biotek) and standard procedures were applied.
# [1] = system: SK-MEL-28 melanoma cell line; assay: NCI-60 single-dose screening; type: cell-based; settings: 10 µM
# Method: (§1) Screening against the cancer cell lines was carried out at the National Cancer Institute (NCI, Bethesda, Maryland, USA) applying the standard protocol of the NCI[22].
# (§2) The final target compounds were submitted to the National Cancer Institute (NCI), Maryland, USA[23]. Thirty-one compounds were selected to be tested over 60 cell lines at single dose 10 µM.
# [2] = system: LOX IMVI melanoma cell line; assay: NCI-60 single-dose screening; type: cell-based; settings: 10 µM
# Method: as §1, §2
# [3] = system: SF-295 CNS cancer cell line; assay: NCI-60 single-dose screening; type: cell-based; settings: 10 µM
# Method: as §1, §2
# [4] = system: SK-MEL-5 melanoma cell line; assay: NCI-60 single-dose screening; type: cell-based; settings: 10 µM
# Method: as §1, §2
# [5] = system: Colo 205 colon cancer cell line; assay: NCI-60 single-dose screening; type: cell-based; settings: 10 µM
# Method: as §1, §2
# [6] = system: HCC-2998 colon cancer cell line; assay: NCI-60 single-dose screening; type: cell-based; settings: 10 µM
# Method: as §1, §2
# [7] = system: HOP-92 non-small cell lung cancer cell line; assay: NCI five-dose testing; type: cell-based; settings: HOP-92
# Method: as §1
# [8] = system: HT-29 colon cancer cell line; assay: NCI five-dose testing; type: cell-based; settings: HT-29
# Method: as §1
# [9] = system: OVCAR-4 ovarian cancer cell line; assay: NCI five-dose testing; type: cell-based; settings: OVCAR-4
# Method: as §1
# [10] = system: A498 renal cancer cell line; assay: NCI five-dose testing; type: cell-based; settings: A498
# Method: as §1
# [11] = system: MDA-MB-468 breast cancer cell line; assay: NCI five-dose testing; type: cell-based; settings: MDA-MB-468
# Method: as §1
# [12] = system: PC-3 prostate cancer cell line; assay: NCI five-dose testing; type: cell-based; settings: PC-3
# Method: as §1
# [13] = system: U251 CNS cancer cell line; assay: NCI five-dose testing; type: cell-based; settings: U251
# Method: as §1
# [14] = system: K-562 leukaemia cell line; assay: NCI five-dose testing; type: cell-based; settings: K-562
# Method: as §1
# [15] = system: SK-MEL-5 melanoma cell line; assay: NCI five-dose testing; type: cell-based; settings: SK-MEL-5
# Method: as §1
# GSK3b = molecular target: T2, GSK3b (Homo sapiens, UniProt P49841); assay: In vitro kinase screening (Kinase HotSpot); type: biochemical; settings: single dose of 10 µM, 10 µM
# T2 construct: purchased Reaction Biology Corp
# Excerpt: To investigate the biological target of compound, Reaction Biology Corp. Kinase HotSpotSM service was used adopting standard assay protocol.
# [16] = In vivo pharmacokinetic assay; settings: SD rats, 10 mg/kg, mean, N = 3
# Method: Serum samples were collected each 30 min. The blood concentration of the test compounds was determined by LC-MS/MS (Agilent 1290 infinity II series equipped with on-line degasser, binary pump, thermostatted well-plate autosampler and column compartment, Waters Atlantis® HSS T3 (2.1 × 100 mm, 1.9 µm) column, and mobile phase linear gradient from 95% A (0.1% formic acid in water) /5% B (0.1% formic acid in acetonitrile) to 5% A/95% B, 6500+ QTRAP LC-MS/MS/MS system, Turbo Spray Ion Drive as ion source, and Carbamazepine as internal standard. Pharmacokinetic parameters were obtained by non-compartmental analysis of the plasma concentration–time profiles using KineticaTM 4.4.1 (Thermo Fisher Scientific, Inc., Woburn, MA, USA).
# NCI-60 cell line panel = assay: NCI-60 single-dose (10 µM) antiproliferative screening, mean over panel; type: cell-based; settings: single-dose 10 µM
# Method: as §1, §2
# [17] = read-out: TGI (total growth inhibition concentration)
# T2 sequence (P49841 whole entry): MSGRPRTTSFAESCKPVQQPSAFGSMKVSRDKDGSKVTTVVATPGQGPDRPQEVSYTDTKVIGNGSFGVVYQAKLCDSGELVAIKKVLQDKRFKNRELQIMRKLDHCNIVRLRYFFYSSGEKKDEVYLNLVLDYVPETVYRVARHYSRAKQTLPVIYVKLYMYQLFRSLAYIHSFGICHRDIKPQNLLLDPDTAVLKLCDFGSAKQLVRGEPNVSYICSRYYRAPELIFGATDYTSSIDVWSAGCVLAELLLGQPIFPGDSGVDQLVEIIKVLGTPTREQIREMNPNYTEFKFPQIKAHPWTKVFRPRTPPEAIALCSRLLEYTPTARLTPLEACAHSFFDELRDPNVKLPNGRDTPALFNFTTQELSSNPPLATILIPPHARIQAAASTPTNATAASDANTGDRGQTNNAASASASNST
# T1 sequence (Q12809 whole entry): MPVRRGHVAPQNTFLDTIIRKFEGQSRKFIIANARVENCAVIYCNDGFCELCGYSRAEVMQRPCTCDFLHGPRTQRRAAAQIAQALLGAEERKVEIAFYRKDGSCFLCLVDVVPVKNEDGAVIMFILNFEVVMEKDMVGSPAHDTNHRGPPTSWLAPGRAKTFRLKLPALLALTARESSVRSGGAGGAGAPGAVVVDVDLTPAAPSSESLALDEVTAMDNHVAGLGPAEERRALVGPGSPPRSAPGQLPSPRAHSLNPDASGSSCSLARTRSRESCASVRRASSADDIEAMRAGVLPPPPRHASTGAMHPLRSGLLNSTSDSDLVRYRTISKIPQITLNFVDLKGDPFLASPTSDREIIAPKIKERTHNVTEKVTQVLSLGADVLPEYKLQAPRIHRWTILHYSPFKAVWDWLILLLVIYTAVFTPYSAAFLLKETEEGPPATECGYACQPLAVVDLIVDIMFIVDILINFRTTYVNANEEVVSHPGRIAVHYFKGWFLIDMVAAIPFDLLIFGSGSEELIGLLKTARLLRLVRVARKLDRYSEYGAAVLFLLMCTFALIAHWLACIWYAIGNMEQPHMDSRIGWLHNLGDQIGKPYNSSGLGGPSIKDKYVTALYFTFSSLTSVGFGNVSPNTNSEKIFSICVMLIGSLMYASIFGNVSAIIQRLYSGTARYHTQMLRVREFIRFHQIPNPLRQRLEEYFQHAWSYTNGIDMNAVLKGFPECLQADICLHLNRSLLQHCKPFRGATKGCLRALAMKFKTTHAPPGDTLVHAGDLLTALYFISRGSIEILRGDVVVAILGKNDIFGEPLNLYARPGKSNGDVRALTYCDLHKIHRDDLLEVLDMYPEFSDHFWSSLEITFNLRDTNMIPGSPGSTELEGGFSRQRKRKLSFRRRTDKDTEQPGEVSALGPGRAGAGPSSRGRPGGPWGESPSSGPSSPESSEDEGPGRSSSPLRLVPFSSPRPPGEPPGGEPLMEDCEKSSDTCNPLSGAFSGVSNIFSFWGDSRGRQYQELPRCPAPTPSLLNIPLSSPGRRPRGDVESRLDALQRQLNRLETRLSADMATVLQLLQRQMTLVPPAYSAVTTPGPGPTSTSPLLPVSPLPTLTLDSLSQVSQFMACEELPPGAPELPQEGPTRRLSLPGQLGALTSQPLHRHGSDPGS
structure (smiles),measurement,setting,value
"O=S(=O)(NCCCNc1cc(-c2cn(-c3ccccc3)nc2-c2cccc(O)c2)ccn1)c1ccc(Cl)cc1 [Compound 2l, 4-Chloro-N-(3-((4-(3-(3-hydroxyphenyl)-1-phenyl-1H-pyrazol-4-yl)pyridin-2-yl)amino)propyl) benzenesulfonamide]",IC50,hERG,8.28 µM
same,per cent inhibition,[1],136.19%
same,per cent inhibition,[2],129.50%
same,per cent inhibition,[3],155.19%
same,per cent inhibition,[4],156.35%
same,per cent inhibition,[5],170.28%
same,per cent inhibition,[6],162.39%
same,IC50,[7],1.52 µM
same,LD50 (lethal dose 50),[7],93.2 µM
same,IC (TGI),[7]; [17],4.7 µM
same,LD50 (lethal dose 50),[8],4.7 µM
same,IC50,[8]; read-out: IC50,0.47 µM
same,IC (TGI),[8]; [17],1.7 µM
same,IC50,[9],1.67 µM
same,LD50 (lethal dose 50),[9],>100 µM
same,IC (TGI),[9]; [17],5.9 µM
same,IC50,[10],0.33 µM
same,LD50 (lethal dose 50),[10],6.9 µM
same,IC (TGI),[10]; [17],2.2 µM
same,IC50,[11],1.16 µM
same,LD50 (lethal dose 50),[11],>100 µM
same,IC (TGI),[11]; [17],4.6 µM
same,LD50 (lethal dose 50),[12],>100 µM
same,IC50,[12]; read-out: IC50,1.74 µM
same,IC (TGI),[12]; [17],6.1 µM
same,LD50 (lethal dose 50),[13],8.8 µM
same,IC50,[13]; read-out: IC50,1.35 µM
same,IC (TGI),[13]; [17],3.4 µM
same,IC50,[14],0.43 µM
same,LD50 (lethal dose 50),[14],>100 µM
same,IC (TGI),[14]; [17],2.5 µM
same,IC50,[15],1.23 µM
same,LD50 (lethal dose 50),[15],5.3 µM
same,IC (TGI),[15]; [17],2.5 µM
same,Inhibition %,GSK3b,75.45 ± 0.28%
same,AUCinf,[16]; IV,1478.2 ng·h/mL
same,AUClast,[16]; IV,1471.6 ng·h/mL
same,CL,[16]; IV,113 mL/min/kg
same,t1/2,[16]; IV,5.8 h
same,AUCinf,[16]; PO,142.1 ng·h/mL
same,AUClast,[16]; PO,136.0 ng·h/mL
same,Cmax,[16]; PO,36.6 ng/mL
same,F (oral bioavailability),[16]; PO,9.2%
same,Tmax,[16]; PO,0.5 h
same,t1/2,[16]; PO,6.1 h
same,Mean % inhibition,NCI-60 cell line panel; 60-cancer cell line screening,97.80%
same,number of cell lines with more than 100% inhibition,NCI-60 cell line panel; NCI-60 panel,24
